Measured values reported in US9101148B2, “Carbohydrate modifying agent and drinks containing the modifying agent” (SBS Food Group LLC, priority 2001, dated 2015).

Tested on: mutans streptococci
Experiment: Inhibition of growth and adherence of mutans streptococci in vitro by zinc salts
Assay type: cell-based
Conditions: 0.5% zinc solution
Text: In another preferred embodiment of the invention, the formulation includes one or more zinc salt or other source of the zinc ion. Metabolically, zinc is a critical nutrient in the synthesis of insulin and the metabolism of carbohydrates. From a dental perspective, cariogenic bacteria enzymatically produce an insoluble glucan deposit from simple sugars present in the mouth that firmly adheres to the enamel tooth surface.

Compound	adherence of mutans streptococci	growth of mutans streptococci
[Cl-].[Cl-].[Zn+2] [zinc chloride]	inhibited	inhibited
zinc ascorbate	inhibited	inhibited
